Results from patent publication US20160177395A1, “BIOMARKERS FOR THE PREDICTION OF RENAL INJURY” (priority 2007, published 2016).
Where “and” joins values, the source holds several entries; their conditions need not be identical. Identical values can stand only once. Entries after “also recorded” stand apart in the source; their conditions may differ.

Key:
kidney tissues = assay: Random-Forest classifier for renal toxicity, discovery stage (Day-5 and Day-1 signatures); design: species or system rat; settings: Day-5 animals, qRT-PCR data, signature of Table 13
Text: Finding signatures using machine learning algorithms requires two steps—selecting a limited set of features to be used for the signature, and building a classifier using these features. The feature selection stage is especially significant here for several reasons. Large number of features means a low signal to noise ratio, tampering the classifier performance, large number of features, compared to the relatively small number of samples, means that spurious features might exists. These are features that give good classification on the experiment data by chance, causing the classifier to be over-fitted to the learning set and have low prediction ability, and finally—a small number of features is important for practical application of the signature.
The initial features selection process is done by performing Mann-Whitney (Wilcoxon) rank-sum test on the data, considering only probesets whose overall normalized expression mean is over 25, to avoid working at noise-level. […]
The qRT-PCR data was used to construct the optimal Random-Forest classifier for Day-5 (Table 13) and Day-1 (Table 16). The optimal performance of the Day-5 signatures, as measured by cross validation is—Accuracy of 94% and LOR of 5.6. […]

[1] = test system: Sprague-Dawley Crl:CD(SD) rats; assay: Rat toxicity study, single, 5-day and 28-day treatment (clinical observation, clinical pathology, autopsy, organ weights, histopathology);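 also: control rats received saline intraperitoneally, and the organs examined were adrenals, brain, kidneys, liver, spleen and thymus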
Description: Control animals were treated intraperitoneal with saline.
Randomization and group allocation: prior to treatment, the animals were assigned to the experimental groups based on their body weight. Mean body weight of each group at randomization was not deviate±20% of the mean population weight. Males and females were randomized separately. For the randomization, a computer program was used.
The day before autopsy, urinalysis was performed and blood samples were taken for hematology and clinical chemistry examinations.
On the day of autopsy the animals were anaesthetized with isoflurane, blood was collected for PBMC isolation then subjected to autopsy. Tissues and organs (adrenals, brain, kidneys, liver, spleen and thymus) were weighed and subjected to gross pathological and histopathological examinations.

[2] = test system: kidney tissues of treated or untreated rats; assay: Real-time qRT-PCR of signature amplicons, validation stage, labeled and un-labeled samples (Table 23); settings: listed as CadCl; for H31883_DB71_seg13 normalized qRT-PCR result / MUSCYCG1R_DB81_seg19-20 normalized qRT-PCR result / W41270_DB81_seg11 normalized qRT-PCR result: labeled sample, one line per animal; for H31883_DB71_seg13 normalized qRT-PCR expression (Cyclin-G1 (CCNG1) transcript) / MUSCYCG1R_DB81_seg19-20 normalized qRT-PCR expression / W41270_DB81_seg11 normalized qRT-PCR expression (tumor necrosis factor receptor superfamily, member 12a transcript): labeled samples
Outline: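 Each of four signature genes measured as wild-type and alternative-splice amplicons by qRT-PCR in treated or untreated rat kidney. Normalization was two-step: housekeeping-gene factor, then inter-plate correction from shared samples on a shuffled control plate; final values rescaled for display.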

[3] = 5-day treatment, compared with controls
[4] = day1, kidney of individual male/female rats
[5] = day5, kidney of individual male/female rats
[6] = day28, kidney of individual male/female rats

Structure (SMILES): [Cl][Cd][Cl] [Cadmium chloride]
- Samples classified correctly as toxic by the optimal Day-5 classifier (kidney tissues): 5 out of 6
- Autopsy findings ([1]; 5-day treatment): No effect
- Body weight gain ([1]; 5-day treatment): Body weight gain decreased in both sexes; also recorded: Decreased body weight gain was recorded in males
- Clinical pathology ([1]; 5-day treatment): Slightly increased Gamma GT values were recorded in females; also recorded: ♀: ↑ γGT
- Clinical symptoms ([1]; 5-day treatment): mild clinical symptoms (hollow psoas, colic) immediately after the administration
- Histopathology / renal damage ([1]; 5-day treatment): No renal damage was found
- Organ weight [1, 3]: Lower thymus weights
- Water consumption [1, 3]: Decrease in Tobramycin and Cadmium chloride treated females
- Body weight and body weight gain ([1]; 28-day treatment): affected body weight gain in both sexes; also recorded: Effect on body weight and body weight gain was seen
- Clinical symptoms ([1]; 28-day treatment): Mild clinical symptoms (hollow psoas, colic) were recorded in both sexes; also recorded: Clinical symptoms were observed
- Histopathology / nephrotoxicity ([1]; 28-day treatment): significant nephrotoxicity was found only in a single female; also recorded: ♂: lymphoid depletion
- Water consumption ([1]; 28-day treatment): Slightly lower water consumption was recorded in males
- Clinical pathology ([1]; 28-day treatment, blood and urine): AST (Aspartate Aminotransferase) values were elevated in both sexes; also recorded: A few transitional epithelial cells were observed in the urine of females; also recorded: ♀: trans. epith
- Water consumption, males ([1]; 28-day treatment, compared with controls): Sight decrease during the last week
- Decreasing order of nephrotoxicity at histopathological examination ([1]; 28-day treatment, females): Cisplatin, Cadmium chloride, Gentamycin, Doxorubicin and Tobramycin in females
- Autopsy findings ([1]; 28-day treatment, male and female rats): Round bordered spleen and liver and thickening of peritoneum were recorded in both sexes; also recorded: Pale and enlarged kidneys were found in a single female; also recorded: Round bordered liver, enlarged spleen and thickening of the peritoneum were found in both sexes
- Organ weight ([1]; 28-day treatment, male and female rats, compared with controls): higher liver and spleen weight; also recorded: increased weight of kidneys and decreased thymus were recorded in females; also recorded: Increased liver weights in groups of both sexes; also recorded: Higher weights of kidneys in females; also recorded: Weights of spleen were higher in Gentamycin treated males and Cadmium chloride treated groups of both sexes; also recorded: Decreased thymus weights
- Clinical symptoms ([1]; single and 5-day treatment): Clinical symptoms were observed only in Cadmium chloride groups of both sexes
- Body weight gain ([1]; single treatment): Decreased body weight gain was recorded in both sexes
- Clinical pathology ([1]; single treatment): Lower lymphocytes and increased neutrophils counts were found in males
- Clinical symptoms ([1]; single treatment): Mild clinical symptoms (hollow psoas, colic) were observed in both sexes
- H31883_DB71_seg13 normalized qRT-PCR result ([2]; day1, female rat kidney): 1.194 and 1.772 and 1.894
- MUSCYCG1R_DB81_seg19-20 normalized qRT-PCR result ([2]; day1, female rat kidney): 1.133 and 1.64 and 1.263
- W41270_DB81_seg11 normalized qRT-PCR result ([2]; day1, female rat kidney): 1.059 and 1.155 and 1.372
- H31883_DB71_seg13 normalized qRT-PCR result ([2]; day1, male rat kidney): 1.034 and 1.027 and 0.957
- MUSCYCG1R_DB81_seg19-20 normalized qRT-PCR result ([2]; day1, male rat kidney): 0.951 and 1.108 and 1.069
- W41270_DB81_seg11 normalized qRT-PCR result ([2]; day1, male rat kidney): 1.499 and 1.622 and 1.512
- H31883_DB71_seg13 normalized qRT-PCR result ([2]; day5, female rat kidney): 1.782 and 0.906
- MUSCYCG1R_DB81_seg19-20 normalized qRT-PCR result ([2]; day5, female rat kidney): 1.866 and 0.805
- W41270_DB81_seg11 normalized qRT-PCR result ([2]; day5, female rat kidney): 2.282 and 0.854
- H31883_DB71_seg13 normalized qRT-PCR result ([2]; day5, male rat kidney): 1.104 and 1.157 and 1.671
- MUSCYCG1R_DB81_seg19-20 normalized qRT-PCR result ([2]; day5, male rat kidney): 1.083 and 1.409 and 2.393
- W41270_DB81_seg11 normalized qRT-PCR result ([2]; day5, male rat kidney): 1.337 and 1.662 and 1.675
- H31883_DB71_seg13 normalized qRT-PCR result ([2]; day28, female rat kidney): 0.259 and 0.783 and 1.033
- MUSCYCG1R_DB81_seg19-20 normalized qRT-PCR result ([2]; day28, female rat kidney): 0.728 and 0.975 and 1.58
- W41270_DB81_seg11 normalized qRT-PCR result ([2]; day28, female rat kidney): 0.414 and 0.827 and 1.098
- H31883_DB71_seg13 normalized qRT-PCR result ([2]; day28, male rat kidney): 0.531 and 0.817 and 0.633
- MUSCYCG1R_DB81_seg19-20 normalized qRT-PCR result ([2]; day28, male rat kidney): 0.672 and 0.836 and 0.333
- W41270_DB81_seg11 normalized qRT-PCR result ([2]; day28, male rat kidney): 0.781 and 1.107 and 0.807
- H31883_DB71_seg13 normalized qRT-PCR expression (Cyclin-G1 (CCNG1) transcript) [2, 4]: 0.919 and 1.005 and 1.446 and 1.239 and 1.632 and 1.143
- MUSCYCG1R_DB81_seg19-20 normalized qRT-PCR expression [2, 4]: 1.224 and 1.097 and 2.129 and 2.276 and 1.856 and 3.981
- W41270_DB81_seg11 normalized qRT-PCR expression (tumor necrosis factor receptor superfamily, member 12a transcript) [2, 4]: 0.727 and 1.183 and 1.265 and 0.993 and 0.983 and 1
- H31883_DB71_seg13 normalized qRT-PCR expression (Cyclin-G1 (CCNG1) transcript) [2, 5]: 1.057 and 1.154 and 0.786 and 1.132 and 1.051
- MUSCYCG1R_DB81_seg19-20 normalized qRT-PCR expression [2, 5]: 1.036 and 2.018 and 1.292 and 3.613 and 2.866
- W41270_DB81_seg11 normalized qRT-PCR expression (tumor necrosis factor receptor superfamily, member 12a transcript) [2, 5]: 1.067 and 2.101 and 1.109 and 0.769 and 1.211
- H31883_DB71_seg13 normalized qRT-PCR expression (Cyclin-G1 (CCNG1) transcript) [2, 6]: 0.785 and 0.652 and 0.712 and 0.681 and 0.849 and 0.578
- MUSCYCG1R_DB81_seg19-20 normalized qRT-PCR expression [2, 6]: 0.769 and 1.356 and 1.068 and 0.68 and 2.128 and 0.932
- W41270_DB81_seg11 normalized qRT-PCR expression (tumor necrosis factor receptor superfamily, member 12a transcript) [2, 6]: 1.138 and 0.529 and 0.772 and 0.578 and 0.654 and 0.522
